Test results from patent publication US20260091136A1, “USING ENHO GENE THERAPY TO TREAT CARDIOMETABOLIC DISEASE” (University of Pittsburgh-of the Commonwealth System of …, priority 2023, published 2026).
“Also recorded” adds a separate entry of the source.

Columns and labels:
[1] = system: hearts isolated from chow-fed mice; settings: cited from earlier work
[2] = In vivo stability of recombinant Adropin (clearance from circulation); settings: within 1 hour
[3] = system: hexosamine biosynthesis pathway (HBP); test: Metabolomics of hearts, HFpEF vs HFpEF+Adropin; assay type: in vivo, C57BL/6J mice; settings: heart; for cardiac hexose and pyruvate levels: Adropin-treated HFpEF mice; for hexosamine biosynthesis pathway (metabolites related to UDP-GlcNAc biosynthesis), untargeted BioCyc pathway analysis: vehicle-treated vs adropin-treated HFpEF groups
Source text: (§1) Animal Care and Use. Male C57BL/6J 8-week-old mice were obtained from the Jackson Laboratory and maintained on chow for 4 weeks to acclimate to their new environment. Animals were housed in the University of Pittsburgh animal facility under standard conditions with ad libitum access to water and food and maintained on a constant 12-hour light/dark cycle. At 12 weeks of age, the mice were exposed to normal chow (Chow; 60% carbohydrate, 26% protein, 14% fat), or a combination of high-fat diet (HFD; 20% carbohydrate, 20% protein, 60% fat) plus No-nitro-L-arginine methyl ester (L-NAME: 0.5 g/L) supplemented in their drinking water after adjusting the pH to 7.4 with 1N NaOH to induce HFpEF [10]. For cohort 1, the mice were subject to the HFpEF diet for 15 weeks. For cohort 2, after 8 weeks of diet, mice were randomly assigned to a control or treatment group receiving daily intraperitoneal injections of either vehicle or recombinant adropin at 450 nmol/kg animal weight prepared in PBS with 0.1% BSA for the remaining 5 weeks of the study. L-NAME supplemented drinking water was changed weekly and adropin was made fresh and sterile filtered before each use.
Quantitative Metabolomics. Metabolic quenching and polar metabolite pool extraction was performed by adding ice cold 80% methanol (aqueous) at a ratio of 1:15 wt input tissue:vol. (13 C1)-creatinine, (D3)-taurine, (D3)-lactate and (D3)-alanine were added to the sample lysates as an internal standard for a final concentration of […]. Samples are homogenized using an MP Bio FastPrep system using Matrix D (ceramic sphere) for 60 seconds at 60 hz. The supernatant was then cleared of protein by centrifugation at 16,000 g. 2 μL of cleared supernatant was subjected to online LC-MS analysis. Analyses were performed by untargeted liquid chromatography-high-resolution mass spectrometry (LC-HRMS). Briefly, samples were injected via a Thermo Vanquish UHPLC and separated over a reversed phase. Thermo HyperCarb porous graphite column (2.1×100 mm, […]) maintained at 55° C. For the 20 min LC gradient, the mobile phase consisted of the following: solvent A (water/0.1% FA) and solvent B (ACN/0.1% FA). The gradient was the following: 0-1 min 1% B, increase to 15% B over 5 min, continue increasing to 98% B over 5 min, hold at 98% B for five min, re-equillibrate at 1% B for five min. The Thermo IDX tribrid mass spectrometer was operated in both positive and negative ion mode, scanning in ddMS2 mode (2 scans) from 70 to 800 m/z at 120,000 resolution with an AGC target of 2e5 for full scan, 2e4 for ms2 scans using HCD fragmentation at stepped 15, 35, 50 collision energies. Source ionization setting was 3.0 and 2.4 kV spray voltage, respectively, for positive and negative mode. Source gas parameters were 35 sheath gas, 12 auxiliary gas at 320° C., and 8 sweep gas. Calibration was performed prior to analysis using the Pierce™ FlexMix Ion Calibration Solutions. Integrated peak areas were then extracted manually using Quan Browser (Thermo Fisher Xcalibur ver. 2.7). Untargeted differential comparisons were performed using Compound Discoverer 3.0 to generate a ranked list of significant compounds with tentative identifications from BioCyc, KEGG, and internal compound databases. Purified standards were then purchased and compared in retention time, m/z, along with ms2 fragmentation patterns to validate the identity of significant hits.

LCAD = LCAD activity assay in cardiac tissue; assay type: in vivo, C57BL/6J mice; settings: isolated cardiac tissues; downregulated in HFpEF vs chow
Source text: as §1
LCAD Activity Assay/Biochemical Assays/Enzyme activity assay. […] The reaction was initiated with 60 µM acyl-CoA, and the rate of absorbance change was measured/observed at 600 nm over 45 min. […]

HFpEF mice = test: Heart weight and heart histology (Masson's trichrome, WGA), cohort 2; assay type: in vivo, C57BL/6J mice; settings: for cardiac fibrosis / cardiomyocyte hypertrophy: HFpEF mice following Adropin treatment, histology
Source text: as §1
Histology. Preparation and staining of all histological samples were conducted by the Pitt Biospecimen Core at the University of Pittsburgh. All mice were sacrificed, and tissue harvested for analysis within one hour of completion of the IPGTT study. The apex of the heart and right (cohort 1) or left (cohort 2) lobe of the liver was excised from each mouse following euthanasia, fixed in 10% buffered formalin phosphate overnight at shaking incubation, washed 3 times for 5 min with 1× phosphate-buffered saline (PBS), and then transferred to 70% ethanol. Samples were then embedded in paraffin, sectioned into 4 μm slides and stained with hematoxylin and eosin (H&E), wheat germ agglutinin (WGA) or Masson's Trichrome for analysis. The NAFLD/MAFLD activity score (NAS) was obtained based on methods established by the Pathology Committee of the Non-alcoholic Steatohepatitis (NASH) Clinical Research Network. Liver pathology scoring was performed in a blinded independent fashion. NAS consisted of separate category scores which included steatosis (0-3), where 0=0-5%, 1=6-33%, 2=34-66%, and 3=67-100% of hepatocytes positive for steatosis; lobular inflammation (0-3), where 0=no foci, 1=[…], 2=2-4 foci and 3=greater than 4 foci all per 200× field; and hepatocellular ballooning (0-2), where 0=none present, 1=few and 2=many/prominent. The final NAS represents a sum of the three category scores. Histology sections were visualized with the Evos FL Auto 2 Microscope, observed changes in structure were quantified using ImageJ software and representative images are shown.

## Adropin: recombinant Adropin peptide hormone encoded by the ENHO gene; full-length (SEQ ID NO: 1) or cleaved product of amino acids 34-76 (SEQ ID NO: 2) (CHSRSADVDSLSESSPNSSPGPCPEKAPPPQKPSHEGSYLLQP)
[1]; acute adropin treatment, hearts isolated from chow-fed mice [32]
  cardiac contractility: increase
[1]; ex vivo perfusion studies [33]
  effect on cardiac contractility after exposure to a long-term HFD: lost
[2]
  peptide cleared from circulation: 96%
[3]
  cardiac hexose and pyruvate levels: trend towards decreased
  hexosamine biosynthesis pathway (metabolites related to UDP-GlcNAc biosynthesis), untargeted BioCyc pathway analysis: major metabolomic differences; also recorded: modulated
[3]; listed as adropin
  cardiac hexose and pyruvate levels: trend towards restored
  hexosamine biosynthesis pathway (metabolites related to UDP-GlcNAc biosynthesis), untargeted BioCyc pathway analysis: major metabolomic difference; also recorded: inhibits
[3]; relative to HFpEF mice
  abundance of metabolites used to generate UDP-GlcNAc (GlcNAc-6-P, uridine, coenzyme A): significant increase
LCAD
  LCAD enzymatic activity (oxidation rates): restored
HFpEF mice; HFpEF increase vs chow, in adropin-treated animals
  increase in normalized heart weight to tibia length: absent
HFpEF mice
  cardiac fibrosis: prevented the development; also recorded: reduced
  cardiomyocyte hypertrophy: prevented the development; also recorded: reduced
HFpEF mice; listed as adropin
  cardiac fibrosis: reversed
  cardiomyocyte hypertrophy: reversed
